“Also recorded” adds a separate entry of the source.
Key:
Format in all cases: cell-based, human
[1] = tested on: cisplatin-resistant ovarian cancer cell line A2780cis; assay: Caspase-3/7 activity assay (apoptotic cell death), compound alone or with cisplatin; conditions: for caspase-3/7 activity (Lum) with compound and cisplatin (20 μM) / caspase-3/7 activity (Lum) with compound alone: Table 6; for caspase-3/7 activity (Lum) with compound alone: untreated cells 9 ± 1
Outline: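 Caspase-3/7 activity in A2780cis cells treated with compound alone or with cisplatin, luminescent Caspase-Glo 3/7 read-out. Apoptotic morphology is checked microscopically just before measurement.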

[2] = tested on: A2780cis cells; assay: Short-term (3 h) exposure, cell survival by CellTiter-Blue after 48 h in compound free media; conditions: 20 μM compound with various doses of cisplatin, viability after two days, in words
Experimental: FIG. 5. Short-term exposure of A2780cis cells to the combination of cisplatin and compound 1-6 dramatically reduces cell survival. A2780cis cells were treated with increasing doses of cisplatin alone or the combination of cisplatin with compound 1-6 (20 μM) for 3 h. The compounds were then washed out. Cell survival was determined after 48 h incubation of cells in compound free media by CellTiter-Blue assay.
Further analysis was performed with compound 1-6. […] This synergism for the combination of cisplatin and 1-6 was further confirmed using a fresh sample of high chemical purity (98%). This synergistic effect was also observed using the CellTiter-Blue cell viability assay (FIG. 5) under an alternative exposure strategy that mimics in viva drug administration to test the combination effect. Considering the clearance of cisplatin over the time and the duration of exposure of tumor cells to the effective doses of the drugs in vivo (Los et al., 1989), a short-term exposure of cells to the combination of 20 μM of 1-6 with various doses of cisplatin was tested, followed by cell viability assay after two days.

[3] = tested on: A2780cis cells; assay: Western blot of caspase/PARP cleavage, Noxa induction, RPA32 and H2AX phosphorylation; conditions: compound 20 μM + cisplatin 20 μM
Experimental: Whole cell lysate was prepared by lysing cells in cell lysis buffer (Cell signaling technology) containing complete protease inhibitor (Roche). Cell lysates were then cleared at 15,000 rpm for 15 min at 4° C. The protein content was quantified using a Bio-Rad Protein Assay kit (Bio-Rad Laboratories, Hercules, Calif.). The equal amount of protein was separated on Tris-glycine gels (Invitrogen). The separated proteins were blotted onto a polyvinylidene difluoride membrane and blocked overnight at 4° C. in phosphate-buffered saline containing 0.1% Tween 20 and 10% nonfat dry milk (blocking buffer). Membranes were incubated with primary antibodies in blocking buffer overnight at 4° C. Primary antibodies used were: β-actin from Sigma; Bax, Bak, Caspase-9 and cleaved Caspase-3 from Cell Signaling Technology; phospho-Histone H2AX (Ser 139) and Noxa from Millipore. Membranes were then washed and incubated in peroxidase conjugated anti-rabbit IgG (Sigma) or anti-mouse IgG (Sigma) secondary antibody for 1 h at room temperature. Membranes were developed using SuperSignal West Femto Maximum Sensitivity Substrate (Thermo Fisher Scientific).
A2780cis cells were treated with cisplatin alone, compounds alone or in combination with cisplatin at indicated concentrations for 20 h to analyze apoptotic cell death in response to treatment. […] Expression and cleavage of several major caspases (Caspase-8, Caspase-9 and Caspase-3), as well as poly(ADP-ribose) polymerase (PARP) and NOXA. A2780cis cells were treated with cisplatin (20 μM) alone, compounds (20 μM) alone or in combination with cisplatin for 20 h.
To determine the effects of the compounds on DNA damage and mitochondrial dysfunction, A2780cis cells were treated with cisplatin (20 μM) alone or the combination of cisplatin with 20 μM of compound 1-6. Replication protein A (RPA) is a single strand-specific DNA-binding protein, consisting of three subunits, RPA70, RPA32, and RPA14. RPA32 is phosphorylated in response to DNA replication stress. Western blot analysis was performed to evaluate the phosphorylation of RPA32 and histone H2AX, the induction of Noxa expression and cleavage of caspase-3. […] A2780cis cells were treated with cisplatin (50 μM) alone, 1-6 (50 μM) alone or the combination of cisplatin and compound 1-6 for 4 h. The oxygen consumption rate (OCR) was measured by a Seahorse extracellular flux analyzer.

[4] = tested on: cisplatin-resistant ovarian cancer cell line A2780cis; assay: CellTiter-Blue cell viability assay, compound alone or with cisplatin or carboplatin, 24 h; conditions: for Combination Index: CompuSyn software
Experimental: Data were expressed as mean±standard deviation. A Student's t test was used for the comparisons between the treatment with the combination of analogs with cisplatin and with analogs alone. P<0.05 was considered statistically significant. Combination index was calculated using CompuSyn software. A value of 0.3-0.7 for the combination index indicates synergism, 0.1-0.3 indicates strong synergism, and <0.1 indicates very strong synergism (Chou, 2006).
To further validate the activity of the identified 11 active compounds (see FIG. 3), a CellTiter-Blue cell viability assay was performed with increasing concentrations (10 μM, 20 μM and 50 μM) of the disclosed compounds (see FIG. 4 and Table 5). Cisplatin resistant ovarian cancer cells (A2780cis) were treated with a disclosed compound alone, cisplatin alone or a combination of a compound with cisplatin for 24 h to determine the effects of the compounds on cell viability.
Analysis of the effect of the disclosed compounds with another platinum-containing compound, carboplatin, was performed. A2780cis cells were treated with carboplatin alone or with the combination of carboplatin and the disclosed compounds at indicated concentrations for 24 h followed by the analysis of cell viability.

[5] = compound 10 μM with cisplatin (20 μM)
[6] = compound 20 μM with cisplatin (20 μM)
[7] = compound 50 μM with cisplatin (20 μM)

## CCOCCCn1c(=S)[nH]c2c(C)cccc2c1=O [Compound 1-6]
[1]; FIG. 7A and Table 6, in words
  activation of Caspase-3/7 in combination with cisplatin compared to mdivi-1: more effective; also recorded: more potent than mdivi-1
[1]; Table 1, compound 20 μM with 20 μM cisplatin, 20 h
  caspase-3/7 activity (Lum), compound with cisplatin: 145 ± 6 Lum
[1]; Table 1, compound 20 μM, 20 h, mean ± S.D. of triplicates
  caspase-3/7 activity (Lum), compound alone: 12 ± 0 Lum
[1]; Table 2, compound 20 μM, 20 h
  caspase-3/7 activity (Lum), compound alone: 12 ± 0 Lum
[1]; compound 5 μM + cisplatin 20 μM, 20 h
  caspase-3/7 activity (Lum) with compound and cisplatin (20 μM): 22 ± 1 Lum
[1]; compound 5 μM, 20 h
  caspase-3/7 activity (Lum) with compound alone: 10 ± 1 Lum
[1]; compound 10 μM + cisplatin 20 μM, 20 h
  caspase-3/7 activity (Lum) with compound and cisplatin (20 μM): 67 ± 3 Lum
[1]; compound 10 μM, 20 h
  caspase-3/7 activity (Lum) with compound alone: 10 ± 1 Lum
[1]; compound 20 μM + cisplatin 20 μM, 20 h
  caspase-3/7 activity (Lum) with compound and cisplatin (20 μM): 105 ± 7 Lum
[1]; compound 20 μM, 20 h
  caspase-3/7 activity (Lum) with compound alone: 11 ± 2 Lum
[1]; alone or in the presence of cisplatin, in words
  activity in the screen (Caspase-3/7 activity and microscopic examination), active / inactive: active
[1]; in words
  Caspase-3/7 activity upon combination with cisplatin compared to cisplatin alone or compound alone: increase in Caspase-3/7 activity
[2]
  effect of 3 hr exposure to the combination with cisplatin on proliferation: severe long-term proliferation defect
[3]; 20 h, FIG. 7B, in words
  cleavage of caspases and PARP, induction of Noxa in combination with cisplatin: cleavage of Caspase-8, 9, 3, PARP and the induction of Noxa
[3]; FIG. 8A
  time of enhanced phosphorylation of RPA32 post treatment, combination with cisplatin: ≤ 4 h
[4]; 24 h, FIG. 6, in words
  cell viability after combination with carboplatin compared to carboplatin alone: cell viability was reduced
[4]; Homo sapiens, A2780cis, compound 10 μM, 24 h, untreated cells = 100%, read-out: survival (%) of cells with compound alone
  viability at 10 µM: 98.9 ± 3.1%
[4]; Homo sapiens, A2780cis, compound 20 μM, 24 h, untreated cells = 100%, read-out: survival (%) of cells with compound alone
  viability at 20 µM: 95.4 ± 4.2%
[4]; Homo sapiens, A2780cis, compound 50 μM, 24 h, untreated cells = 100%, read-out: survival (%) of cells with compound alone
  viability at 50 µM: 93.7 ± 4.4%
[4]; compound 10 μM + carboplatin 200 μM, 24 h
  Survival (%) of cells with compound and carboplatin (200 μM): 64.5 ± 2.7%
[4]; compound 10 μM + cisplatin 20 μM, 24 h
  survival (%) of cells with compound and cisplatin (20 μM): 58.8 ± 1.5%
[4]; [5]
  Grading (of combination index): Synergism
  Combination Index: 0.67
[4]; compound 10 μM with cisplatin, FIG. 4, in words
  potency at enhancing the cytotoxicity of cisplatin compared to mdivi-1: more potent than mdivi-1
[4]; compound 20 μM + carboplatin 200 μM, 24 h
  Survival (%) of cells with compound and carboplatin (200 μM): 48.0 ± 3.0%
[4]; compound 20 μM + cisplatin 20 μM, 24 h
  survival (%) of cells with compound and cisplatin (20 μM): 28.0 ± 1.6%
[4]; [6]
  Grading (of combination index): Strong
  Combination Index: 0.24
[4]; compound 50 μM + carboplatin 200 μM, 24 h
  Survival (%) of cells with compound and carboplatin (200 μM): 2.5 ± 0.4%
[4]; compound 50 μM + cisplatin 20 μM, 24 h
  survival (%) of cells with compound and cisplatin (20 μM): 1.5 ± 0.6%
[4]; [7]
  Grading (of combination index): Very strong
  Combination Index: 0.01

Source: US10478437B2, “Combination therapy to enhance the anticancer efficacy of platinum drugs” (University of Pittsburgh-of the Commonwealth System of …, priority 2014, dated 2019)
